# Measured values published in US20120010178A1, “METHODS AND COMPOUNDS FOR TREATMENT OF NEURODEGENERATIVE DISORDERS” (PRESIDENT AND FELLOWS OF HARVARD COLLEGE, priority 2008, published 2012).
# “Also recorded” adds a separate entry of the source. Residues, ends and D or L forms follow the SMILES beside them. *: point of attachment. Cbz = O=C(OCc1ccccc1)*
# Key:
# SMN [1] = test: High-content fibroblast screen for compounds that modulate SMN level; details: for SMN level in fibroblast screen (increase or decrease): human fibroblasts, 2-3 days with compound;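 on all read-outs here: Anti-SMN immunostaining with confocal imaging of nuclear and cytoplasmic SMN and gem counts, tested at 0.1, 1 and 10 uM, fold change relative to negative control wells on each plate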
# SMN [2] = test: SMN immunofluorescence quantification (cytoplasm, nucleus, GEMs) in fibroblasts from SMA patients; format: cell-based, human; details: for levels of cytoplasmic and nuclear SMN (in words) / fold increase in nuclear SMN / fold increase in cytoplasmic SMN: SMA patient fibroblasts; for levels of cytoplasmic and nuclear SMN (in words): substance alone
# Method: Specifically, fibroblasts from patients suffering from SMA were treated with Ionomycin (a channel modulator), Ouabain (a cardiac glycoside and channel modulator), PDGF, SAHA (an HDAC inhibitor), Lactacystin (a proteasome inhibitor) or WIN 55,212-2 (a cannabinoid receptor […] and GPCR ligand) for 72 hours. The cells were fixed with methanol/acetone and stained with Pharmingen BD antibodies, followed by 488 AlexaFluor staining. Images were obtained with 60× lens on Zeiss LSM510 META on an inverted confocal microscope.
# For example, fibroblasts from patients suffering from SMA were treated with Ouabain, Digoxin or Lanatoside at a concentration of 0, 2.5 nM, 5 nM, 10 nM, 20 nM, 40 nM, 80 nM, […] for 72 hours. The cells were fixed with methanol/acetone and stained with Pharmingen BD antibodies, followed by 488 AlexaFluor staining. Images were obtained with 60× lens on Zeiss LSM510 META on an inverted confocal microscope.
# An assay was established for high-content evaluation of SMN protein level in different cellular compartments after treatment with small molecules. SMN protein was visualized by immunofluorescent staining and multiple fields from each plate well were scanned by an automated confocal Opera microscope. […] For each well, the algorithm generated quantitative parameters representing number of cells, as well as SMN fluorescent intensity per cell in cytoplasm, nucleus, number and intensity of GEMs (FIG. 15). […] During the assay transfer to the robotic platform fixation with the ice cold methanol was technically limited, therefore to preserve the maximum possible window we chose to perform the screen on parental fibroblast with PFA fixation.
# For fibroblast assays, human fibroblasts lines GM09677 (derived from patient with SMA type 1 disease) and GM03814 (derived from unaffected parental SMA carriers) were used (Coriell Cell Repositories). […] For secondary assays cells from GM09677 line were used.
# Fibroblasts were grown in MEM media (Invitrogen) supplemented with 5% Fetal Bovine Serum (FBS, Invitrogen), 2 mM glutamine and 1% penicillin-streptomycin (100 U/ml) in a presence of 5% CO2 at 37° C. For drug treatments, cells were plated and treated 24 h later with 10 μM MG132 (Biomol International), […] Calpeptin (Biomol International), 10 mM ammonium chloride, 1 μM myristoylated PKI, or vehicle for the designated times.
# (§1) Compounds were stored at appropriate temperature and dissolved accordingly to the manufacturers (Tocris, Enzo, EMD and Sigma-Aldrich) in DMSO (Sigma-Aldrich), unless stated otherwise (Monensin Na in EtOH, DMPQ in water). Growth factors and PDGF neutralizing antibodies (R&D Systems) were reconstituted with buffers recommended by the supplier. For generation of the dose curves, 1×10^3 fibroblasts were plated on to 96-well Greiner Senso plates (VWR) and treated with compounds on the second day then fixed and stained at the indicated time points. For GSK inhibitors and performing p-GSK3b(Ser9) detection, two days after plating growth media containing 5% FBS was replaced to the media with FBS reduced down to 0.5%, to starve cells for 72 hours. Addition of the GSK inhibitors was done in 5% FBS enriched media.
# SMN [3] = test: Inhibition of PDGF-stimulated SMN increase in fibroblasts by kinase/receptor inhibitors; format: cell-based, human; details: SMA patient fibroblasts, PDGF plus inhibitor or neutralizing antibody
# Method: Fibroblasts from patients suffering from SMA were treated with PDGF at a concentration of 0, 0.3 ng/ml, 0.63 ng/ml, 1.25 ng/ml, 2.5 ng/ml, 5 ng/ml, 10 ng/ml or 20 ng/ml, in the absence or in the presence of 25 uM DMPQ or 25 uM AG-1296 respectively for 72 hours. The levels of both cytoplasmic and nuclear SMN were detected and quantified using the method described in Example 2.
# (§2) Fibroblasts from patients suffering from SMA were either control treated or treated with PDGF at a concentration of 0, 0.63 ng/ml, 1.25 ng/ml, 2.5 ng/ml, 5 ng/ml, 10 ng/ml or 20 ng/ml, in the absence or in the presence of 50 uM LY294002 or 2 uM P1-103 respectively for 72 hours. The levels of both cytoplasmic and nuclear SMN were detected and quantified using the method described in Example 2.
# as §2, with “of” for “of 50 uM LY294002 or”, “uM Papamycin” for “uM P1-103 respectively”, “Example x.” for “Example 2.”
# A range of concentrations were tested in order not to miss the effects. SMN level were evaluated by Opera Evoteck in each cellular compartment and to assess the cell numbers that are summarized in the Table 3.
# as §1, with “media. As previously described, starvation increases levels of constitutively activate GSK3b kinase, allowing to achieve a more dramatic inhibitory effect when GSK inhibitors are added together with growth factors that are also known to inhibit GSK by Ser-9 phosphorylation. […] For all compounds and growth factors control wells received solvent in amount equivalent to the highest concentration of the compound in a dose curve. For PDGF inhibitory studies, cells were pre-treated with kinase inhibitors for 2 hours and PDGF was added with a fresh kinase inhibitor solution and incubated for an additional 3 days.” for “media.”
compound,measurement,setting,value
N#CCCc1ccc2c(c1)-c1[nH]c3ccc([N+](=O)[O-])cc3c1CC(=O)N2,SMN level in fibroblast screen (increase or decrease),SMN [1],SMN is increase
same,levels of cytoplasmic and nuclear SMN (in words),SMN [2],able to elevate SMN in patient fibroblasts
COc1cc2ncc(-c3ccccc3)nc2cc1OC [AG-1296],SMN level in fibroblast screen (increase or decrease),SMN [1],decreased SMN
same,decrease of basal level of SMN,"SMN [2]; added to the regular serum media in which cells are maintained, no added PDGF",20%
same,PDGF-stimulated SMN increase in presence of inhibitor (in words),SMN [3],sufficient to prevent PDGF effect on SMN; also recorded: abrogated
same,PDGF-stimulated SMN increase in presence of inhibitor (in words),SMN [3]; listed as AG-1236,blocked; also recorded: abolished
CNc1ccc2oc(C[C@H]3O[C@@]4(CC[C@H]3C)O[C@H]([C@H](C)C(=O)c3ccc[nH]3)[C@H](C)C[C@H]4C)nc2c1C(=O)O [Calcimycin],SMN level in fibroblast screen (increase or decrease),SMN [1],increase SMN
same,levels of cytoplasmic and nuclear SMN (in words),SMN [2],elevation of SMN levels; also recorded: active in elevating the levels of SMN; also recorded: generally active
same,levels of cytoplasmic and nuclear SMN (in words),SMN [2]; listed as A23187,active
C[C@H](CCC(=O)O)C[C@H](C)C[C@H](C)C(=O)/C=C(\O)[C@H](C)C[C@H](C)C/C=C/[C@@H](C)[C@@H](O)[C@@H](C)[C@@H](O)C[C@@H]1CC[C@@](C)([C@H]2CC[C@@](C)([C@@H](C)O)O2)O1 [Ionomycin],SMN level in fibroblast screen (increase or decrease),SMN [1],increase SMN
same,levels of cytoplasmic and nuclear SMN (in words),SMN [2],increase in SMN levels; also recorded: active in elevating the levels of SMN; also recorded: able to increase SMN level
same,levels of cytoplasmic and nuclear SMN (in words),SMN [2]; listed as ionomycin,elevation of SMN levels; also recorded: active
CC(=O)N[C@@H](CSC(=O)[C@]1([C@@H](O)C(C)C)NC(=O)[C@H](C)[C@@H]1O)C(=O)O [Lactacystin],SMN level in fibroblast screen (increase or decrease),SMN [1],increase SMN
same,levels of cytoplasmic and nuclear SMN (in words),SMN [2],increase in SMN levels
same,"effect on GEMs (number / intensity, in words)",SMN [2]; fibroblasts,mostly affected GEMs
Clc1ccc2ncnc(NCc3ccc4c(c3)OCO4)c2c1 [MBCQ],SMN level in fibroblast screen (increase or decrease),SMN [1],increase SMN
CC(C)C[C@@H](C=O)NC(=O)[C@H](CC(C)C)NC(=O)[C@H](CC(C)C)NC(=O)OCc1ccccc1 [MG-132] (Cbz-Leu-Leu-Leu-aldehyde),SMN level in fibroblast screen (increase or decrease),SMN [1],increase SMN
CC[C@@]1([C@@H]2O[C@@H]([C@H]3O[C@@](O)(CO)[C@H](C)C[C@@H]3C)C[C@@H]2C)CC[C@H]([C@]2(C)CC[C@]3(C[C@H](O)[C@@H](C)[C@@H]([C@@H](C)[C@@H](OC)[C@H](C)C(=O)O)O3)O2)O1 [Monensin Na],SMN level in fibroblast screen (increase or decrease),SMN [1],increase SMN
same,fold increase in nuclear SMN,SMN [2],2 fold
O=C(Nc1ccc([N+](=O)[O-])cc1Cl)c1cc(Cl)ccc1O [Niclosamide],SMN level in fibroblast screen (increase or decrease),SMN [1],SMN is increase
C[C@@H]1O[C@@H](O[C@H]2C[C@@H](O)[C@]3(CO)[C@H]4[C@H](O)C[C@]5(C)[C@@H](C6=CC(=O)OC6)CC[C@]5(O)[C@@H]4CC[C@]3(O)C2)[C@H](O)[C@H](O)[C@H]1O [Ouabain],SMN level in fibroblast screen (increase or decrease),SMN [1],increase SMN
same,SMN level in fibroblast screen (increase or decrease),SMN [1]; listed as ouabain,consistently emerged as hits
same,levels of cytoplasmic and nuclear SMN (in words),SMN [2],increase in SMN levels
Oc1cccc(-c2nc(N3CCOCC3)c3oc4ncccc4c3n2)c1 [PI-103],SMN level in fibroblast screen (increase or decrease),SMN [1],decreased SMN
same,PDGF-stimulated SMN increase in presence of inhibitor (in words),SMN [3],PDGF does not increase the levels of SMN; also recorded: able to prevent PDGF induced SMN increase in all cellular compartments; also recorded: completely abolished
same,PDGF-stimulated SMN increase in presence of inhibitor (in words),SMN [3]; listed as P1-103,abrogated
Nc1ccc(-c2cccc3c(=O)cc(N4CCOCC4)oc23)cc1 [PI-828],SMN level in fibroblast screen (increase or decrease),SMN [1],decreased SMN
"O=C1Nc2ccc3ncsc3c2C1=Cc1cnc[nH]1 [PKR inhibitor, 6,8-Dihydro-8-(1H-imidazol-5-ylmethylene)-7H-pyrrolo[2,3-g]benzothiazol-7-one]",SMN level in fibroblast screen (increase or decrease),SMN [1],SMN is increase
same,fold increase in cytoplasmic SMN,SMN [2],2 fold
same,fold increase in nuclear SMN,SMN [2],1.5 fold
"O=C(CCCCCCC(=O)Nc1ccccc1)NO [SAHA, Suberoylanilide Hydroxamic Acid]",SMN level in fibroblast screen (increase or decrease),SMN [1],increase SMN
same,levels of cytoplasmic and nuclear SMN (in words),SMN [2],increase in SMN levels
same,"effect on GEMs (number / intensity, in words)",SMN [2]; fibroblasts,increased GEM counts at the lower concentrations
same,nuclear SMN at the higher dosage (in words),"SMN [2]; fibroblasts, higher dosage",increased nuclear SMN predominantly
C/C=C(/C)C(=O)O[C@H]1C(C)=C2[C@H]([C@@H]1OC(=O)CCCCCCC)[C@@](C)(OC(C)=O)C[C@H](OC(=O)CCC)[C@@]1(O)[C@H]2OC(=O)[C@@]1(C)O [Thapsigargin],SMN level in fibroblast screen (increase or decrease),SMN [1],increase SMN
same,levels of cytoplasmic and nuclear SMN (in words),SMN [2],active in elevating the levels of SMN; also recorded: generally active; also recorded: caused SMN upregulation
same,levels of cytoplasmic and nuclear SMN (in words),SMN [2]; listed as thapsigagin,elevation of SMN levels
CC(C)[C@@H]1NC(=O)[C@H](C)OC(=O)[C@@H](C(C)C)NC(=O)[C@@H](C(C)C)OC(=O)[C@H](C(C)C)NC(=O)[C@H](C)OC(=O)[C@@H](C(C)C)NC(=O)[C@@H](C(C)C)OC(=O)[C@H](C(C)C)NC(=O)[C@H](C)OC(=O)[C@@H](C(C)C)NC(=O)[C@@H](C(C)C)OC1=O [Valinomycin],SMN level in fibroblast screen (increase or decrease),SMN [1],increase SMN
"Cc1c(C(=O)c2cccc3ccccc23)c2cccc3c2n1[C@H](CN1CCOCC1)CO3 [WIN 55, 212-2]",SMN level in fibroblast screen (increase or decrease),SMN [1],increase SMN
same,fold increase in cytoplasmic SMN,SMN [2],1.5 fold
same,fold increase in nuclear SMN,SMN [2],2 fold
same,levels of cytoplasmic and nuclear SMN (in words),SMN [2],increase in SMN levels
Coumermycin A1,concentration at which SMN level was increased,SMN [1]; during screening,10 µM
same,SMN level in fibroblast screen (increase or decrease),SMN [1],increase SMN
ceramide,SMN level in fibroblast screen (increase or decrease),SMN [1],increase SMN
